We go through 6 compounds from PubChem BioAssay (NCI).

SMILES strings stand for the structures.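 The compound was tested at five concentrations on cells cultured in 96-well plates, with a 48-hour exposure period. TGI: total growth inhibition.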

Among the test systems are DLD-1 colon; DMS 273 small cell lung; SK-OV-3 ovarian; DMS 114 small cell lung; NCI-H522 lung; HT29 colon; XF 498 CNS; RXF-631 renal; RPMI-8226 leukemia; SNB-78 CNS; M19-MEL melanoma; KM20L2 colon; LXFL 529 NSCLC; UACC-257 melanoma; HOP-18 NSCLC.
Common to all, as to assay: growth of human tumour cells (NCI), 48 h

`CC(=O)NC(CCCNC(=O)N(C)N=O)C(=O)NCc1ccccc1` (stereo not drawn): the TGI in the experiment on DLD-1 colon, in the experiment on DMS 273 small cell lung, in the experiment on SK-OV-3 ovarian, with DMS 114 small cell lung, with NCI-H522 lung and in the experiment with HT29 colon was above 100 µM each time. For the same compound, the TGI in the experiment with XF 498 CNS, in the experiment with RXF-631 renal, in the experiment with RPMI-8226 leukemia, in the experiment with SNB-78 CNS, in the experiment on M19-MEL melanoma and with KM20L2 colon was above 100 µM each time. Moreover, the TGI in the experiment with LXFL 529 NSCLC and in the experiment with UACC-257 melanoma was above 100 µM in each case.

Consider `CCc1cccc(C(C)C)c1NC(=O)/C(=N\NC(N)=O)C(C(=O)OC)c1cnc2ccccc2n1` (stereo not drawn), for which the TGI in the experiment on DLD-1 colon was above 100 µM; in the experiment with DMS 273 small cell lung it was above 100 µM; in the experiment with SK-OV-3 ovarian it was above 100 µM; with DMS 114 small cell lung it was 54.2 µM; with NCI-H522 lung, 71.9 µM; with HT29 colon, above 100 µM. Also, the TGI is above 100 µM in the experiment with XF 498 CNS; above 100 µM with RXF-631 renal; above 100 µM in the experiment with SNB-78 CNS; 32.4 µM with M19-MEL melanoma; above 100 µM in the experiment with KM20L2 colon; above 100 µM in the experiment on LXFL 529 NSCLC. For the same compound, the TGI in the experiment with UACC-257 melanoma was 94.4 µM; in the experiment on HOP-18 NSCLC, 98.2 µM.

On to `Cc1cc(Cl)ccc1NC(=O)/C(=N\NC(C)(C)C)C(C#N)c1nc(-c2ccc([N+](=O)[O-])cc2)cs1` (stereo not drawn), for which the TGI in the experiment on DLD-1 colon, with DMS 273 small cell lung, with SK-OV-3 ovarian, in the experiment with DMS 114 small cell lung, in the experiment with NCI-H522 lung and in the experiment with HT29 colon was above 100 µM each time. Further, the TGI with XF 498 CNS, in the experiment on RXF-631 renal, in the experiment on RPMI-8226 leukemia, in the experiment with SNB-78 CNS, in the experiment with M19-MEL melanoma and in the experiment with KM20L2 colon was above 100 µM each time. Also, the TGI in the experiment with LXFL 529 NSCLC, in the experiment with UACC-257 melanoma and in the experiment on HOP-18 NSCLC was above 100 µM throughout.

For `COc1cc([C@@H]2c3cc4c(cc3[C@@H](NCc3ccccc3F)C3COC(=O)[C@@H]32)OCO4)cc(OC)c1O` (stereo partly drawn), the TGI with DLD-1 colon was above 100 µM; with DMS 273 small cell lung, 21.2 µM; in the experiment with SK-OV-3 ovarian, 9.45 µM; with DMS 114 small cell lung it was 28.3 µM; with NCI-H522 lung, 10.2 µM; with HT29 colon, 25.5 µM. The TGI is 19.8 µM with RXF-631 renal; 13.1 µM in the experiment on RPMI-8226 leukemia; above 100 µM with SNB-78 CNS; 23.4 µM in the experiment with M19-MEL melanoma; 8.65 µM in the experiment with KM20L2 colon; 88.2 µM in the experiment with LXFL 529 NSCLC. Besides, the TGI in the experiment with UACC-257 melanoma is 37.2 µM; in the experiment with HOP-18 NSCLC it was above 100 µM.

In the case of `CCOC(=O)c1c(CN2CCNCC2)nc2ccc(Cl)cc2c1-c1ccccc1`, the TGI stood at 10.1 µM in the experiment on DLD-1 colon; 5.56 µM in the experiment with DMS 273 small cell lung; 21.3 µM in the experiment with SK-OV-3 ovarian; 4.05 µM with DMS 114 small cell lung; 9.41 µM with NCI-H522 lung; 3.68 µM in the experiment on HT29 colon. Further, the TGI worked out at 9.43 µM in the experiment on XF 498 CNS; 6.68 µM in the experiment with RXF-631 renal; 4.89 µM with RPMI-8226 leukemia; 24.7 µM in the experiment on SNB-78 CNS; 3.61 µM in the experiment on M19-MEL melanoma; 6.87 µM with KM20L2 colon. Besides, the TGI worked out at 3.2 µM with LXFL 529 NSCLC, 3.62 µM in the experiment with UACC-257 melanoma and 15.5 µM in the experiment with HOP-18 NSCLC.

For `CC(=O)OCC12CC(CC1OC(C)=O)c1ccccc12` (stereo not drawn), the TGI with DMS 273 small cell lung, with SK-OV-3 ovarian, with DMS 114 small cell lung, in the experiment on HT29 colon, in the experiment on RXF-631 renal and with RPMI-8226 leukemia was above 100 µM each time. For the same compound, the TGI in the experiment on M19-MEL melanoma, in the experiment on KM20L2 colon, in the experiment on LXFL 529 NSCLC, in the experiment on UACC-257 melanoma and in the experiment with HOP-18 NSCLC was above 100 µM throughout.
